Target: T1, human recombinant soluble enzyme BACE1 (Homo sapiens, UniProt P56817)
T1 construct: purchased R&D Systems 931-AS
Experiment: Test 1: Inhibition of soluble BACE1 (synthetic substrate S-10-R, HPLC/UV detection of cleavage product)
Assay type: biochemical
Conditions: BACE1 20 nM, substrate S-10-R 350 μM, 1 hour at 37° C., sodium acetate/acetic acid buffer pH 4.5, 10% DMSO
Source text: Test 1: Inhibition of Soluble BACE1
This test uses soluble BACE1 and a synthetic substrate of BACE1.
The human recombinant soluble enzyme BACE1 is available from R&D Systems (reference 931-AS).
The synthetic peptide, made up of the amino acid sequence Ser-Glu-Val-Asn-Leu-Asp-Ala-Glu-Phe-Arg (S-10-R, available from NeoMPS, reference SP000122), is used as synthetic substrate of BACE1.
This synthetic substrate incorporates the cleavage site of BACE1 and fluorescent or chromogenic groups, so that the cleavage products can then be detected, either with UV after separation by HPLC, or by measurement of fluorescence or of optical density. In the present case, the cleavage product Asp-Ala-Glu-Phe-Arg, released during hydrolysis of S-10-R by BACE1, is quantified by UV detection [195 nm] after separation by HPLC with a gradient of acetonitrile from 2% to 100% [HP1100, Agilent; Column Atlantis dC18 (5 mm×2.1 mm; 3 μm)]. […]
The percentage inhibition of the activity of BACE1 by the compounds of the invention is determined as a function of the amount of cleavage product detected by HPLC: the smaller the amount of cleavage product detected, the greater the inhibitory activity of the compounds.
The values of IC50 are then calculated from the percentage inhibition previously determined, in relation to the concentration of the test compounds.

T1 sequence (P56817 46-457 limits assumed): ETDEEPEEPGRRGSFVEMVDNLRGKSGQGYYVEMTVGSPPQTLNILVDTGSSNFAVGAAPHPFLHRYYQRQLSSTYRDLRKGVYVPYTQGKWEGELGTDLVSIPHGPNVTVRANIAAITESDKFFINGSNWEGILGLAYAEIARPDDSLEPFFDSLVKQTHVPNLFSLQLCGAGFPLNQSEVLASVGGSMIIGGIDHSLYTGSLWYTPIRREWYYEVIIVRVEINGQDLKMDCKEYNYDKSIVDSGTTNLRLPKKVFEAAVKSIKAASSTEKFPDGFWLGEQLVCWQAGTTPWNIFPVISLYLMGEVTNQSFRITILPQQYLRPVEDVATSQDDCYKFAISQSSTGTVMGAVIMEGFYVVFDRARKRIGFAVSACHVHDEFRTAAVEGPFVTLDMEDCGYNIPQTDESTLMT

Row | IC50 [nM] | SMILES
1 | 73 | CCCC1CCCCN1C(=O)c1cc(C(=O)N[C@@H](Cc2cc(F)cc(F)c2)[C@H](O)CNC2(c3cccc(C(F)(F)F)c3)CC2)nn1CC (stereo partly drawn) [compound 53, N-{(1S,2R)-1-(3,5-difluorobenzyl)-2-hydroxy-3-({1-[3-(trifluoromethyl)phenyl]cyclopropyl}amino)propyl}-1-ethyl-5-[(2-propylpiperidin-1-yl)carbonyl]-1H-pyrazole-3-carboxamide]
2 | 2000 | CCN(Cc1ccccc1)NC(=O)c1cc(C(=O)N[C@@H](Cc2ccccc2)[C@H](O)CNCc2cccc(C(F)(F)F)c2)nn1CC [compound 69, 5-[(2-benzyl-2-ethylhydrazino)carbonyl]-N-[(1S,2R)-1-benzyl-2-hydroxy-3-{[3-(trifluoromethyl)benzyl]amino}propyl]-1-ethyl-1H-pyrazole-3-carboxamide]
